10 molecules from paper PMC8659164, “Effect of S–Se Bioisosteric Exchange on Affinity and Intrinsic Efficacy of Novel N-acylhydrazone Derivatives at the Adenosine A2A Receptor” (Molecules, 2021) can be followed below.

In this assay the target is T1, adenosine A2A receptor (A2AR) (Rattus norvegicus, UniProt P30543).
T1 construct: gene Adora2a; native full-length receptor in striatum membrane preparation of adult male Wistar rats
The assay is described as follows: [3H]-ZM241385 competition, rat striatum membranes. The conditions noted are these: 50 mM MgCl2 (medium I), 0.5 nM [3H]-ZM241385, pH 7.4, 25 °C, 60 min; parentheses = 95% CI. The format is binding. An excerpt:
[3H]-ZM241385 competition, rat striatum membranes on adenosine A2A receptor (A2AR)

T1 sequence (P30543 whole entry): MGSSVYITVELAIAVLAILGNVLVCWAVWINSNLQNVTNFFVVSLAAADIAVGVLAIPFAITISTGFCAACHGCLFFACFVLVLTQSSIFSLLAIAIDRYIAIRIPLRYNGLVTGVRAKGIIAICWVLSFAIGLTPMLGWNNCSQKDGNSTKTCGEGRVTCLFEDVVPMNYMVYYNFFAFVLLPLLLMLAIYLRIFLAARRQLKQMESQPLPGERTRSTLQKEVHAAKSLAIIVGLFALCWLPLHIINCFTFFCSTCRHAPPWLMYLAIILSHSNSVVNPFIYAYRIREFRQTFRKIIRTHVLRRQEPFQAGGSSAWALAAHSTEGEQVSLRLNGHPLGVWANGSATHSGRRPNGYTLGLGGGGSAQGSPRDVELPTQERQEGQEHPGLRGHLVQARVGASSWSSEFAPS

One may read the IC50 as the midpoint of a concentration-inhibition curve. For `COc1cccc(C(=O)N(C)/N=C/c2cccs2)c1` [compound 7, 3-Methoxy-N-methyl-N’-(thiophen-2-yl-methylene)benzohydrazide], the IC50 was 22.3 µM. Under `O=C(N/N=C/c1cccs1)c1ccc2c(c1)OCO2` [compound 1, LASSBio-294] stands 38.9 µM; under `CN(/N=C/c1cccs1)C(=O)c1ccc2c(c1)OCO2` [compound 2, LASSBio-785], 47.9 µM; under `COc1cccc(C(=O)N/N=C/c2ccc[se]2)c1` [compound 5, 3-Methoxy-N’-(selenophen-2-yl-methylene)benzohydrazide], 10.4 µM.

For the molecule `CN(/N=C/c1ccc[se]1)C(=O)c1ccc2c(c1)OCO2` [compound 6, N-Methyl-N’-(selenophen-2-yl-methylene) benzo[d][1,3]dioxole-5-carbohydrazide], the IC50 worked out at 52.9 µM. The figure for `COc1cccc(C=NNC(=O)c2cccs2)c1` [compound 13, N’-(3-Methoxybenzylidene)thiophene-2-carbo-hydrazide] is 27.1 µM; for `COc1cccc(C(=O)N(C)/N=C/c2ccc[se]2)c1` [compound 8, LASSBio-2199] it is 15.4 µM; for `O=C(N/N=C/c1ccc[se]1)c1ccc2c(c1)OCO2` [compound 3, N’-(Selenophen-2-yl-methylene)benzo[d][1,3] dioxole-5-carbohydrazide] it is 20.9 µM.

As for `COc1cccc(C(=O)N/N=C/c2cccs2)c1` [compound 4, 3-Methoxy-N’-(thiophen-2-yl-methylene)benzohydrazide], the IC50 amounted to 10.8 µM. Under `COc1cccc(C=NNC(=O)c2ccc[se]2)c1` [compound 14, N’-(3-Methoxybenzylidene)selenophene-2-ca-rbohydrazide] stands 16.6 µM.
